Patent US20250170090A1, “METHOD FOR PREVENTING OR TREATING DISEASE OR DISORDER ASSOCIATED WITH ANTINEOPLASTIC AGENT” (ONQUALITY PHARMACEUTICALS CHINA LTD., priority 2022, published 2025)
Like-named read-outs stand apart in the source and are kept apart here.

Key:
[1] = tested on: human oral keratinocytes (HOK); experiment: CCK-8 cell viability: alleviation of proliferative toxicity of anti-tumor agents on HOK (Table 8-2); format: cell-based; conditions: NO-NSAID 100 μM
Procedure, shortened: (§1)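 Cells seeded at 5,000-10,000 per well and exposed to anti-tumor agent (DMSO solvent) alone or with NO-NSAID (ethanol or water solvent), with solvent controls used for correction. Viability read by CCK-8 after 24-48 hours; proliferative toxicity and its alleviation compared by t test.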

[2] = tested on: gastric epithelial cells (GES-1); experiment: CCK-8 cell viability: alleviation of proliferative toxicity of anti-tumor agents on GES-1 (Table 8-3); format: cell-based, human; conditions: NO-NSAID 100 μM
Procedure, shortened: as §1

HUVEC cells = experiment: CCK-8 cell viability: alleviation of proliferative toxicity of anti-tumor agents on HUVEC cells (Tables 7-1, 7-2); format: cell-based; conditions: for activation at 100 µM: Homo sapiens, 24 h, percentage increase in viable cells vs anti-tumor agent alone, read-out: Response rate % (average)
Procedure, shortened: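 HUVEC cells were treated with anti-tumor agent (DMSO solvent) alone or combined with NO-NSAID (ethanol or water solvent), and NO-NSAID solvent controls were used for correction. After 24-48 h of culture, viability was read by CCK-8 to derive proliferative toxicity and how much NO-NSAID mitigated it.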

[3] = Afatinib (10 μM), NO-NSAID 100 μM
[4] = Cabozantinib (5 μM), NO-NSAID 100 μM
[5] = Dabrafenib (10 μM), NO-NSAID 100 μM
[6] = Everolimus (5 μM), NO-NSAID 100 μM
[7] = Infigratinib (15 μM), NO-NSAID 100 μM
[8] = Lapatinib (5 μM), NO-NSAID 100 μM
[9] = Lenvatinib (10 μM), NO-NSAID 100 μM
[10] = Olmutinib (10 μM), NO-NSAID 100 μM
[11] = Regorafenib (5 μM), NO-NSAID 100 μM
[12] = Selumetinib (5 μM), NO-NSAID 100 μM
[13] = Sorafenib (5 μM), NO-NSAID 100 μM
[14] = Sunitinib (5 μM), NO-NSAID 100 μM

COc1ccc2cc(C(C)C(=O)OCCCCO[N+](=O)[O-])ccc2c1 (stereo not shown) [Compound A5]
Response rate % (average) ([1]; Afatinib (10 μM)): 36%
Response rate % (average) ([1]; Cabozantinib (5 μM)): 32%
Response rate % (average) ([1]; Dabrafenib (10 μM)): 8%
Response rate % (average) ([1]; Everolimus (5 μM)): 10%
Response rate % (average) ([1]; Infigratinib (15 μM)): 17%
Response rate % (average) ([1]; Lapatinib (5 μM)): 22%
Response rate % (average) ([1]; Lenvatinib (10 μM)): 25%
Response rate % (average) ([1]; Olmutinib (10 μM)): 38%
Response rate % (average) ([1]; Regorafenib (5 μM)): −2%
Response rate % (average) ([1]; Selumetinib (5 μM)): 8%
Response rate % (average) ([1]; Sorafenib (5 μM)): 28%
Response rate % (average) ([1]; Sunitinib (5 μM)): 29%
Response rate % (average) ([2]; Afatinib (10 μM)): 18%
Response rate % (average) ([2]; Cabozantinib (5 μM)): 37%
Response rate % (average) ([2]; Dabrafenib (10 μM)): 12%
Response rate % (average) ([2]; Everolimus (5 μM)): 33%
Response rate % (average) ([2]; Infigratinib (15 μM)): 36%
Response rate % (average) ([2]; Lapatinib (5 μM)): 40%
Response rate % (average) ([2]; Lenvatinib (10 μM)): 29%
Response rate % (average) ([2]; Olmutinib (10 μM)): 35%
Response rate % (average) ([2]; Regorafenib (5 μM)): 14%
Response rate % (average) ([2]; Selumetinib (5 μM)): 12%
Response rate % (average) ([2]; Sorafenib (5 μM)): 22%
Response rate % (average) ([2]; Sunitinib (5 μM)): 21%
NO-NSAID response rate % (average) (HUVEC cells; Afatinib (10 μM), NO-NSAID 0.1 μM): 24%
NO-NSAID response rate % (average) (HUVEC cells; Afatinib (10 μM), NO-NSAID 1 μM): 28%
NO-NSAID response rate % (average) (HUVEC cells; [3]): 69%
NO-NSAID response rate % (average) (HUVEC cells; Afatinib (10 μM), NO-NSAID 500 μM): 22%
NO-NSAID response rate % (average) (HUVEC cells; Cabozantinib (5 μM), NO-NSAID 0.1 μM): 1%
NO-NSAID response rate % (average) (HUVEC cells; Cabozantinib (5 μM), NO-NSAID 1 μM): 15%
NO-NSAID response rate % (average) (HUVEC cells; [4]): 60%
NO-NSAID response rate % (average) (HUVEC cells; Cabozantinib (5 μM), NO-NSAID 500 μM): 24%
NO-NSAID response rate % (average) (HUVEC cells; Dabrafenib (10 μM), NO-NSAID 0.1 μM): 27%
NO-NSAID response rate % (average) (HUVEC cells; Dabrafenib (10 μM), NO-NSAID 1 μM): 28%
NO-NSAID response rate % (average) (HUVEC cells; [5]): 65%
NO-NSAID response rate % (average) (HUVEC cells; Dabrafenib (10 μM), NO-NSAID 500 μM): 31%
NO-NSAID response rate % (average) (HUVEC cells; Everolimus (5 μM), NO-NSAID 0.1 μM): 0%
NO-NSAID response rate % (average) (HUVEC cells; Everolimus (5 μM), NO-NSAID 1 μM): −7%
NO-NSAID response rate % (average) (HUVEC cells; [6]): 28%
NO-NSAID response rate % (average) (HUVEC cells; Everolimus (5 μM), NO-NSAID 500 μM): −2%
activation at 100 µM (HUVEC cells; [3]): 69%
activation at 100 µM (HUVEC cells; Anlotinib (5 μM), NO-NSAID 100 μM): 57%
activation at 100 µM (HUVEC cells; Apatinib (10 μM), NO-NSAID 100 μM): 59%
activation at 100 µM (HUVEC cells; Axitinib (10 μM), NO-NSAID 100 μM): -2%
activation at 100 µM (HUVEC cells; [4]): 60%
activation at 100 µM (HUVEC cells; [5]): 65%
activation at 100 µM (HUVEC cells; Dacomitinib (5 μM), NO-NSAID 100 μM): 75%
activation at 100 µM (HUVEC cells; Encorafenib (5 μM), NO-NSAID 100 μM): 28%
activation at 100 µM (HUVEC cells; Erdafitinib (10 μM), NO-NSAID 100 μM): 43%
activation at 100 µM (HUVEC cells; [6]): 28%
activation at 100 µM (HUVEC cells; Famitinib (5 μM), NO-NSAID 100 μM): 35%
activation at 100 µM (HUVEC cells; Fruquintinib (10 μM), NO-NSAID 100 μM): 37%
activation at 100 µM (HUVEC cells; Gefitinib (10 μM), NO-NSAID 100 μM): 21%
activation at 100 µM (HUVEC cells; [7]): 48%
activation at 100 µM (HUVEC cells; [8]): 62%
activation at 100 µM (HUVEC cells; [9]): 32%
activation at 100 µM (HUVEC cells; [10]): 48%
activation at 100 µM (HUVEC cells; [11]): 83%
activation at 100 µM (HUVEC cells; [12]): 61%
activation at 100 µM (HUVEC cells; [13]): 1%
activation at 100 µM (HUVEC cells; [14]): 44%
activation at 100 µM (HUVEC cells; Vemurafenib (5 μM), NO-NSAID 100 μM): 24%
NO-NSAID response rate % (average) (HUVEC cells; Infigratinib (15 μM), NO-NSAID 0.1 μM): 28%
NO-NSAID response rate % (average) (HUVEC cells; Infigratinib (15 μM), NO-NSAID 1 μM): 30%
NO-NSAID response rate % (average) (HUVEC cells; [7]): 48%
NO-NSAID response rate % (average) (HUVEC cells; Infigratinib (15 μM), NO-NSAID 500 μM): 34%
NO-NSAID response rate % (average) (HUVEC cells; Lapatinib (5 μM), NO-NSAID 0.1 μM): 26%
NO-NSAID response rate % (average) (HUVEC cells; Lapatinib (5 μM), NO-NSAID 1 μM): 35%
NO-NSAID response rate % (average) (HUVEC cells; [8]): 62%
NO-NSAID response rate % (average) (HUVEC cells; Lapatinib (5 μM), NO-NSAID 500 μM): 36%
NO-NSAID response rate % (average) (HUVEC cells; Lenvatinib (10 μM), NO-NSAID 0.1 μM): 11%
NO-NSAID response rate % (average) (HUVEC cells; Lenvatinib (10 μM), NO-NSAID 1 μM): 44%
NO-NSAID response rate % (average) (HUVEC cells; [9]): 32%
NO-NSAID response rate % (average) (HUVEC cells; Lenvatinib (10 μM), NO-NSAID 500 μM): 16%
NO-NSAID response rate % (average) (HUVEC cells; Olmutinib (10 μM), NO-NSAID 0.1 μM): 19%
NO-NSAID response rate % (average) (HUVEC cells; Olmutinib (10 μM), NO-NSAID 1 μM): 34%
NO-NSAID response rate % (average) (HUVEC cells; [10]): 48%
NO-NSAID response rate % (average) (HUVEC cells; Olmutinib (10 μM), NO-NSAID 500 μM): 39%
NO-NSAID response rate % (average) (HUVEC cells; Regorafenib (5 μM), NO-NSAID 0.1 μM): 29%
NO-NSAID response rate % (average) (HUVEC cells; Regorafenib (5 μM), NO-NSAID 1 μM): 46%
NO-NSAID response rate % (average) (HUVEC cells; [11]): 83%
NO-NSAID response rate % (average) (HUVEC cells; Regorafenib (5 μM), NO-NSAID 500 μM): 22%
NO-NSAID response rate % (average) (HUVEC cells; Selumetinib (5 μM), NO-NSAID 0.1 μM): 38%
NO-NSAID response rate % (average) (HUVEC cells; Selumetinib (5 μM), NO-NSAID 1 μM): 42%
NO-NSAID response rate % (average) (HUVEC cells; [12]): 61%
NO-NSAID response rate % (average) (HUVEC cells; Selumetinib (5 μM), NO-NSAID 500 μM): 26%
NO-NSAID response rate % (average) (HUVEC cells; Sorafenib (5 μM), NO-NSAID 0.1 μM): 20%
NO-NSAID response rate % (average) (HUVEC cells; Sorafenib (5 μM), NO-NSAID 1 μM): 20%
NO-NSAID response rate % (average) (HUVEC cells; [13]): 1%
NO-NSAID response rate % (average) (HUVEC cells; Sorafenib (5 μM), NO-NSAID 500 μM): 3%
NO-NSAID response rate % (average) (HUVEC cells; Sunitinib (5 μM), NO-NSAID 0.1 μM): 20%
NO-NSAID response rate % (average) (HUVEC cells; Sunitinib (5 μM), NO-NSAID 1 μM): 40%
NO-NSAID response rate % (average) (HUVEC cells; [14]): 44%
NO-NSAID response rate % (average) (HUVEC cells; Sunitinib (5 μM), NO-NSAID 500 μM): 31%
